Assay results: patent publication US20020169123A1, “Regulating apoptosis in TRAIL-resistant cancer cells, while protecting normal, non-cancerous cells” (THE TRUSTEES OF THE UNIVERSITY OF PENNSYLVANIA, priority 2001, published 2002)

Experiments:
[1] = test system: TRAIL-resistant HCE4 cell line; assay: time course western blot of caspase activation and PARP cleavage; type: cell-based, human; settings: only in CHX-pretreated HCE4 cells; 6 hours CHX pre-incubation
Protocol: (§1) Western blot analysis was carried out as previously described (Meng et al., Clin. Cancer Res. 4:251-259 (1998)). Blotted membranes were immunostained with anti-DR4 (1:500; Pharmingen), anti-DR5 (1:500; IMGENEX, San Diego, Calif.), anti-DcR1 (1:500; Pharmingen), anti-DcR2 (1:500; Pharmingen), anti-FADD (Clone IF7, 1:2000; Upstate Biotechnology, Lake Placid, N.Y.), anti-caspase 8 (Clone 5F7, 1:1000; Upstate Biotechnology), anti-FLIP (Clone Dave-2, 1:1000; Alexis Biochemicals, San Diego, Calif.), anti-Bid (1:500; Pharmingen), anti-Bax (1:500, Pharmingen), anti Bcl-2 (Bcl-2/100, 1:500; Pharmingen), anti-Bcl-xL (1:500; Pharmingen), anti-caspase 3 (E-8, 1:200; Santa Cruz, Santa Cruz, Calif.), anti-PARP (1:2000; Roche Diagnostics GmbH, Mannheim, Germany), anti-TRAIL (1:500; PeproTech Inc., Rocky Hill, N.J.), or anti-actin (I-19, 1:200; Santa Cruz).
A time course experiment was performed using the TRAIL-resistant HCE4 cell line. After 6 hours of pre-incubation in the presence or absence of CHX, the cells were exposed to TRAIL, then lysates were prepared and harvested at time points every 30 minutes after the addition of TRAIL, up to 4 hrs by adding 1× SDS loading buffer. The timed lysates were subjected to 10 or 12% SDS-PAGE, and then immunoblotted and stained with the indicated antibodies (FIG. 3). […]

[2] = test system: esophageal cancer cell lines; assay: active-caspase 3 assay, TRAIL cytotoxicity on esophageal cancer cell lines; type: cell-based, human
Protocol: To assess TRAIL cytotoxicity on esophageal cancer cells, the active-caspase 3 assay was used. […] After 16 hours of the TRAIL treatment, the cells were harvested and the active-caspase 3 assay was performed as described in the Experimental Procedures above. In the case of CHX treatment, the cells were pre-treated with CHX (10 μg/mL final concentration) for 6 hours before the addition of TRAIL.
The protein synthesis inhibitor, cycloheximide (“CHX”), has been widely used with apoptosis-inducing ligands, such as FAS/FASL, TNF-α, or TRAIL, to induce cell death effectively. […] This is because previous observers have reported that over-expression of c-FLIP can interrupt the recruitment of caspase 8 into DISC, thereby preventing down stream activation of the caspase cascade (Wajant et al., J. Biol. Chem. 275:24357-24366 (2000)). It has also been reported that CHX might sensitize the cells to TRAIL by inhibiting a de novo synthesis of c-FLIP, thereby increasing the recruitment of caspase 8 into DISC (Fulda et al., Cancer Res. 60:3947-3956 (2000)), followed by activation of downstream apoptotic signaling cascade.

HCE4 cells = assay: DISC IP analysis, recruitment of caspase 8 into DISC; type: cell-based, human; settings: CHX-pre-treated vs control
Protocol: (§2) To perform the DISC analysis, cells were grown, harvested and re-suspended in 2 mL of DMEM (1.5×10^7 cells/mL). TRAIL (500 ng/mL final concentration) and anti-6× His antibody (2.5 μg/mL final concentration) were pre-mixed for 10 minutes on ice, then added to the re-suspended cells. The cells were treated with TRAIL for 20 minutes in a 37° C. water bath with intermittent agitation. TRAIL treatment was stopped by adding 5 mL of ice-cold PBS, followed by immediate centrifugation. […]
(§3) To the cleared lysate, 30 μL of protein A/G plus agarose beads (Santa Cruz) were added and incubated overnight in a cold room with continuous rocking. […] After centrifugation at the same condition, the precipitates were re-suspended in 1× SDS loading buffer and analyzed by 12% SDS-PAGE and western immunostaining.
(§4) In the control used to verify the DISC without TRAIL stimulation, the same amounts of TRAIL and antibody were added to the lysate after the cells were lysed with IP lysis buffer. Equal amounts of total cell lysates were also analyzed as an expression control. […]
(§5) FIGS. 3A and 3B depict an immunostained western blot showing the sensitization of TRAIL-resistant HCE4 cells to TRAIL resulting from CHX pre-treatment. […] Actin levels were measured as a control standard.

TE9 cells = assay: as above; type: cell-based, human; settings: CHX-pre-treated vs control
Protocol: as §2, §3, §4, §5

TE5 cells = assay: suppression of endogenous Bcl-xL by anti-sense morpholino, western blot and active-caspase 3 assay; type: cell-based, human
Protocol: Anti-sense Bcl-xL morpholino oligonucleotides (5′-[…]-3′) (SEQID NO:2) for suppressing expression of endogenous Bcl-xL in vivo, and fluorescein-labeled standard control oligonucleotides were purchased from Gene Tools, LLC (Corvallis, Oreg.). The scrape delivery method was used to deliver the oligonucleotides to the cells. Briefly, cells (1×10^6/well) were seeded into a 6-well culture plate, and after 16 hours of incubation, the medium was changed with 1 mL of fresh medium containing 20 μM morpholino oligonucleotides (chemically modified antisense oligonucleotides). Then, the cells were scraped out of the plates using a cell scraper (SARSTEDT, Newton, N.C.). After gently pipetting up and down twice, the cells were transferred to a new culture plate. After 48 hours of incubation, the cells were treated under the indicated conditions described in the corresponding figures for the example in which the cells were used. […] The effect is not seen in normal cells.
To confirm the effect of Bcl-xL on the synergistic cell killing, we introduced anti-sense Bcl-xL morpholino oligonucleotides (AS Bcl-xL) were introduced into TE5 cells. This was to determine the effect of suppression of the endogenous Bcl-xL in the TE5 cells. […]

HFK cells = assay: active-caspase 3 assay on foreskin keratinocytes; type: cell-based, human; settings: increasing concentrations of TRAIL, 4 hours
Text: Experiments were done in duplicate (mean value±SD).

[3] = test system: EPC2 normal esophageal epithelial cells; settings: EPC2 cells
Protocol: Normal human primary epithelial cells (EPC2, provided by Dr. Anil Rustgi, University of Pennsylvania) and primary human foreskin keratinocytes (HFK, provided by Dr. John C. Ansel, Emory University), were grown in Keratinocyte-SFM medium (Gibco BRL, Rockville, Md.) containing bovine pituitary extract (40 μg/mL) and epidermal growth factor (1 ng/mL). The primary epithelial cells were used at passage 4 or 5.
The N-terminal histidine (His) tagged recombinant human TRAIL (rhTRAIL, Thr-95 to Gly-281) was obtained from R&D Systems (Minneapolis, Minn.). A mouse monoclonal anti-6× His antibody (R&D Systems) was used for cross-linking the rhTRAIL. […] Cells were treated with TRAIL (50 ng/mL final concentration) and 1 μg/mL of anti-6× His (N-terrninal histidine antibody) for 4 hours or for 16 hours. The caspase inhibitor was used at a final concentration of 20 μM, and was added 2 hours prior to the addition of TRAIL. […] In the case of adriamycin, cells were pre-treated with adriamycin (0.5 μM final concentration) for 16 hours before the addition of TRAIL.
(§6) For detecting apoptosis mediated by TRAIL, an active-caspase 3 assay was performed using Cytofix/Cytoperm kit (Pharmingen, San Diego, Calif.), as previously described (Kim et al., Int. J. Oncol. 18:241-247 (2001)). Briefly, using standard techniques, 5×10^5 cells were seeded into a 6 well plate, after which, the cells were treated with TRAIL cross-linked with anti-6× His antibody. […] After washing, the cells were probed with 0.125 μg/μl of Phycoerythrin (PE)-conjugated goat anti-rabbit secondary antibody (Ab) (CALTAG Laboratories, Burlingame, Calif.) for 20 minutes in the dark. The intensity of PE was analyzed by flow cytometry using a Beckman-Coulter Epics Elite analyzer.

[4] = test system: all cells, including cancer cells; assay: protection from the killing effect of TRAIL by caspase inhibitors; type: cell-based; settings: stated without experimental detail
EPC2 = assay: mitochondrial transmembrane potential change; type: cell-based, human; settings: data not shown
[5] = test system: TRAIL-resistant HCE4, TE3, and TE5 cells; assay: active-caspase 3 assay, adriamycin plus TRAIL; type: cell-based, human; settings: HCE4, TE3, TE5; 0.5 μM adriamycin 16 hours, then TRAIL 4 hours; no inhibitor
Protocol: Cells were treated with TRAIL (50 ng/mL final concentration) and 1 μg/mL of anti-6× His (N-terrninal histidine antibody) for 4 hours or for 16 hours. The caspase inhibitor was used at a final concentration of 20 μM, and was added 2 hours prior to the addition of TRAIL. When the cells were treated with both cycloheximide (CHX) and TRAIL, CHX (10 μg/mL final concentration) was added 6 hours before the addition of TRAIL. In the case of adriamycin, cells were pre-treated with adriamycin (0.5 μM final concentration) for 16 hours before the addition of TRAIL.
as §6
Accordingly, adriamycin was tested to determine whether its combination with TRAIL could induce synergistic cell killing in TRAIL-resistant esophageal cancer cells. TRAIL-resistant HCE4, TE3, and TE5 cells were pre-treated with 0.5 μM adriamycin for 16 hours, followed by incubation for 4 hours in the presence of TRAIL. z-LEHD-FMK (20 μM final concentration) was added 2 hours before the addition of TRAIL. An active-caspase 3 assay was used to determine whether apoptosis occurred.
Next, z-LEHD-FMK was tested in the HCE4, TE3 and TE5 cells to determine the protective effect of z-LEHD-FMK, if any, on the synergistic cell death driven by the combination of adriamycin with TRAIL.

HCE4, TE3 and TE5 cells [6] = assay: mitochondrial transmembrane potential change, DiOC6 flow cytometry; type: cell-based, human; settings: 0.5 μM adriamycin 16 hours; 100 nM DiOC6
Protocol: To detect any change of Δψm after treating cells with adriamycin, 3,3′-dihexyloxacarbocyanine iodide (DiOC6 (Pan et al., 1997)) were used. Briefly, 5×10^5 cells/well were seeded into a 6 well plate. After treatment with adriamycin, the cells were harvested, washed and re-suspended in complete media containing 100 nM DiOC6 (Pan et al., 1997) followed by 30 minutes incubation in a 37° C. water bath.
In addition to determine the potential mitochondrial membrane (Δψm) change after 16 hours of adriamycin (0.5 μM) pretreatment, the HCE4, TE3 and TE5 cells were incubated in the presence of 100 nM DiOC6 (Pan et al., 1997).

HCE4, TE3 and TE5 cells [7] = assay: Bax translocation, cell fractionation and western blot; type: cell-based, human; settings: cytoplasmic and heavy membrane fractions, western blot
Protocol: as §1
To prepare cytoplasmic fraction and mitochondria-rich heavy membrane fraction, cells were harvested, washed, and then re-suspended in RSB100 (10 mM Tris-HCl, pH 7.4, 2.5 mM MgCl2, 100 mM NaCl) containing 35 μg/mL digitonin (Calbiochem, San Diego, Calif.), and 1× complete protease inhibitor cocktail (Roche Diagnostics). After incubation on ice for 5 minutes, the cells were disrupted by passage through a 25G needle. […] Protein quantity was measured using Bio-Rad protein assay reagent (Bio-Rad, Hercules, Calif.). […]

Compound: C[C@@H]1C[C@@H]([C@H](O)CC2CC(=O)NC(=O)C2)C(=O)[C@@H](C)C1 [CHX, cycloheximide]
- onset of activation of caspase 8, Bid, caspase 9 and cleavage of PARP after TRAIL treatment [1]: approximately 1 hour
- sensitization to TRAIL by CHX pre-treatment ([2]; all cancer cell lines, CHX 10 μg/mL for 6 hours before TRAIL): became sensitized to TRAIL
- amount of caspase 8 in the DISC after CHX pre-treatment (HCE4 cells): slight decrease
- amount of caspase 8 recruited into DISC after CHX pre-treatment (TE9 cells): no increase

Compound: AS Bcl-xL: Anti-sense Bcl-xL morpholino oligonucleotide 5'-CGGTTGCTCTGAGACATTTTTATA-3' (SEQID NO:2), from Gene Tools (all phosphorodiamidate morpholino (PMO))
- expression of endogenous Bcl-xL (TE5 cells; 20 μM morpholino oligonucleotide, scrape delivery, western blot): suppression of endogenous Bcl-xL was observed
- cell death by adriamycin plus TRAIL when Bcl-xL is suppressed (TE5 cells; even in the presence of z-LEHD-FMK): underwent synergistic apoptotic cell death

Compound: TRAIL: N-terminal histidine tagged recombinant human TRAIL (Thr-95 to Gly-281) from R&D Systems, cross-linked with anti-6x His antibody
- TRAIL sensitivity (more than 30% of the cells active-caspase 3 positive) ([2]; TE2, TE9 and TE12 cell lines, TRAIL cross-linked with anti-6x His antibody, 16 hours): sensitive to TRAIL
- TRAIL cytotoxicity (active-caspase 3) (HFK cells): not affected
- TRAIL cytotoxicity (active-caspase 3) ([3]; TRAIL 5, 10, 25 or 50 ng/mL, 4 hours): showed cytotoxicity in a dose dependent manner

Compound: z-IETD-FMK
- protection from the killing effect of TRAIL [4]: protect all cells, including cancer cells, from the killing effect of TRAIL

Compound: COc1cccc2c1C(=O)c1c(O)c3c(c(O)c1C2=O)C[C@@](O)(C(=O)CO)C[C@@H]3O[C@H]1C[C@H](N)[C@H](O)[C@H](C)O1 [adriamycin, doxorubicin]
- drop of Δψm after adriamycin (EPC2): did not induce drop of Δψm
- cell killing by combination of adriamycin and TRAIL [5]: the effect was synergistic
- drop of Δψm after adriamycin treatment (HCE4, TE3 and TE5 cells [6]): a drop of Δψm was observed only in the HCE4 cells
- cell killing by combination of TRAIL and adriamycin ([3]; no inhibitor): synergistically killed
- Bax translocation from the cytosol to the mitochondria after adriamycin treatment (HCE4, TE3 and TE5 cells [7]): only in the HCE4 cells
